Values joined by “and” are separate entries in the source; they are usually repeats but may differ in a detail not shown here. Identical values can stand only once.
Experiment: UV absorption properties (λmax, molar extinction coefficient ε, efficiency E 1%, 1 cm)
Type: physicochemical
Settings: for ε (molar extinction coefficient): values in order of the λmax values; for ε value: unit inferred

Row | UV λmax | ε (molar extinction coefficient) [M⁻¹ cm⁻¹] | ε value [M⁻¹ cm⁻¹] | SMILES
1 | 350 nm | 21500 | – | C=CC(=O)C1=CN(c2ccc(OC)cc2)CCC1(C)C [Compound 53, 1-(1-(4-methoxyphenyl)-4,4-dimethyl-1,4,5,6-tetrahydropyridin-3-yl)prop-2-en-1-one]
2 | 341 nm | 19350 | – | COc1ccc(N2C=C(C(=O)c3ccc(F)cc3)C(C)(C)CC2)cc1 [Compound 54, (4-fluorophenyl)(1-(4-methoxyphenyl)-4,4-dimethyl-1,4,5,6-tetrahydropyridin-3-yl)methanone]
3 | 338 nm | 8000 | – | CCC(=O)C1=C(c2ccccc2)N(CC(C)C)CCC1(C)C [Compound 58, 1-(1-isobutyl-4,4-dimethyl-2-phenyl-1,4,5,6-tetrahydropyridin-3-yl)propan-1-one]
4 | 323 nm | 20000 | – | CCC(=O)O/C(=C\C1=CC(C)(C)CCN1CC(C)C)CC [Compound 60, 1-(1-isobutyl-4,4-dimethyl-1,4,5,6-tetrahydropyridin-2-yl)but-1-en-2-yl propionate]
5 | 291 nm | – | – | CCC(=O)C1=CN(CC(C)C)C(=O)CC1(C)C [Compound 64, 1-isobutyl-4,4-dimethyl-5-propionyl-3,4-dihydropyridin-2(1H)-one]
6 | 366 nm | – | – | CCC(=O)C1=CN(CC(C)C)C=CC1(C)C [Compound 65, 1-(1-isobutyl-4,4-dimethyl-1,4-dihydropyridin-3-yl)propan-1-one]
7 | 308 nm | – | – | CC(C)CN1C=C(C(=O)CCC(=O)O)C(C)(C)CC1 [Compound 70, 4-(1-isobutyl-4,4-dimethyl-1,4,5,6-tetrahydropyridin-3-yl)-4-oxobutanoic acid]
8 | 314 nm | 26000 | – | CC(C)CN1C=C(C(=O)C(c2ccccc2)c2ccccc2)C(C)(C)CC1 [Compound 71, 1-(1-isobutyl-4,4-dimethyl-1,4,5,6-tetrahydropyridin-3-yl)-2,2-diphenylethanone]
9 | 285 nm | – | – | CC(C)CN1C=C(S(=O)(=O)c2ccccc2)C(C)(C)CC1 [Compound 72, 1-Isobutyl-4,4-dimethyl-5-(phenylsulfonyl)-1,2,3,4-tetrahydropyridine]
10 | 253 nm | 11371 | – | Cc1cc(N2C=CC(C)(C)C=C2)n(C)n1 [Compound 152, 1-(1,3-dimethyl-1H-pyrazol-5-yl)-4,4-dimethyl-1,4-dihydropyridine]
11 | 328 nm | 24907 | – | C=CC(=O)C1=CN(C(C)(C)C)CCC1(C)C [Compound 154, 1-(1-(tert-butyl)-4,4-dimethyl-1,4,5,6-tetrahydropyridin-3-yl)prop-2-en-1-one]
12 | 360 nm | 23198 | – | CC1(C)CCN(C(C)(C)C)C=C1C(=O)/C=C/c1ccccc1 [Compound 155, (E)-1-(1-(tert-butyl)-4,4-dimethyl-1,4,5,6-tetrahydropyridin-3-yl)-3-phenylprop-2-en-1-one]
13 | 317 nm | 27506 | – | CC1(C)CCN(C(C)(C)C)C=C1C(=O)c1ccc(Br)cc1 [Compound 156, (4-bromophenyl)(1-(tert-butyl)-4,4-dimethyl-1,4,5,6-tetrahydropyridin-3-yl)methanone]
14 | 307 nm | 54797 | > 54000 | CC1(C)CCN(C(C)(C)C)C=C1C(=O)CCCCCCCCC(=O)C1=CN(C(C)(C)C)CCC1(C)C [Compound 166, 1,10-bis(1-(tert-butyl)-4,4-dimethyl-1,4,5,6-tetrahydropyridin-3-yl)decane-1,10-dione]
15 | 305 nm | 15425 | – | CC1(C)CCN(C(C)(C)C)C=C1C(=O)C1=CN(C(C)(C)C)CCC1(C)C [Compound 167, bis(1-(tert-butyl)-4,4-dimethyl-1,4,5,6-tetrahydropyridin-3-yl)methanone]
16 | 313 nm | 26154 | – | CC1(C)CCN(C(C)(C)C)C=C1C(=O)COc1ccccc1 [Compound 168, 1-(1-(tert-butyl)-4,4-dimethyl-1,4,5,6-tetrahydropyridin-3-yl)-2-phenoxyethanone]
17 | 316 nm | 23556 | – | CC1(C)CCN(C(C)(C)C)C=C1C(=O)c1ccncc1 [Compound 169, (1-(tert-butyl)-4,4-dimethyl-1,4,5,6-tetrahydropyridin-3-yl)(pyridin-4-yl)methanone]
18 | 396 nm and 309 nm | – | – | CC1(C)CCN(C(C)(C)C)C=C1C(=O)CC(=O)c1ccccc1 [Compound 170, 1-(1-(tert-butyl)-4,4-dimethyl-1,4,5,6-tetrahydropyridin-3-yl)-3-phenylpropane-1,3-dione]

Row | UV λmax | ε (molar extinction coefficient) [M⁻¹ cm⁻¹] | ε value [M⁻¹ cm⁻¹] | SMILES
19 | 332 nm | 30675 | – | COc1ccc(N2C=C(C(=O)C3CCCC3=O)C(C)(C)CC2)cc1 (stereo not shown) [Compound 171, 2-(1-(4-methoxyphenyl)-4,4-dimethyl-1,4,5,6-tetrahydropyridine-3-carbonyl)cyclopentanone]
20 | 328 nm | 52737 | > 52000 | Cc1ccc(N2C=C(C(=O)CCCCCCCCC(=O)C3=CN(c4ccc(C)cc4)CCC3(C)C)C(C)(C)CC2)cc1 [Compound 172, 1,10-bis(4,4-dimethyl-1-(p-tolyl)-1,4,5,6-tetrahydropyridin-3-yl)decane-1,10-dione]
21 | 339 nm | 26633 | – | COc1ccc(N2C=C(C(=O)COc3ccccc3)C(C)(C)CC2)cc1 [Compound 173, 1-(1-(4-methoxyphenyl)-4,4-dimethyl-1,4,5,6-tetrahydropyridine-3-yl)-2-phenoxyethanone]
22 | 334 nm | 33786 | – | COc1ccc(N2C=C(C(=O)Cc3ccccc3)C(C)(C)CC2)cc1 [Compound 174, 1-(1-(4-methoxyphenyl)-4,4-dimethyl-1,4,5,6-tetrahydropyridin-3-yl)-2-phenylethanone]
23 | 338 nm | 28040 | – | CCCCCCCC(=O)C1=CN(c2ccc(N(C)C)cc2)CCC1(C)C [Compound 175, 1-(1-(4-(dimethylamino)phenyl)-4,4-dimethyl-1,4,5,6-tetrahydropyridin-3-yl)octan-1-one]
24 | 327 nm | 34608 | – | CCC(=O)C1=CN(c2ccc(C)cc2)CCC1(C)C [Compound 176, 1-(4,4-dimethyl-1-(p-tolyl)-1,4,5,6-tetrahydropyridin-3-yl)propan-1-one]
25 | 329 nm | 31955 | – | CCC(=O)C1=CN(c2ccc(C(C)(C)C)cc2)CCC1(C)C [Compound 177, 1-(1-(4-(tert-butyl)phenyl)-4,4-dimethyl-1,4,5,6-tetrahydropyridin-3-yl)propan-1-one]
26 | 321 nm | 23247 | – | CCC(=O)C1=CN(c2cccc3ccccc23)CCC1(C)C [Compound 178, 1-(4,4-dimethyl-1-(naphthalen-1-yl)-1,4,5,6-tetrahydropyridin-3-yl)propan-1-one]
27 | 308 nm | 34834 | 35000 | CC1(C)CCN(C(C)(C)C)C=C1C(=O)Nc1ccccc1 [Compound 179, 1-(tert-butyl)-4,4-dimethyl-N-phenyl-1,4,5,6-tetrahydropyridine-3-carboxamide]
28 | 312 nm | 15174 | – | CN(C(=O)C1=CN(C(C)(C)C)CCC1(C)C)c1ccccc1 [Compound 180, 1-(tert-butyl)-N,4,4-trimethyl-N-phenyl-1,4,5,6-tetrahydropyridine-3-carboxamide]
29 | 289 nm | 31072 | – | CC1(C)CCN(C(C)(C)C)C=C1C(=O)NCCCCCCNC(=O)C1=CN(C(C)(C)C)CCC1(C)C [Compound 181, N,N′-(hexane-1,6-diyl)bis(1-(tert-butyl)-4,4-dimethyl-1,4,5,6-tetrahydropyridine-3-carboxamide)]
30 | 363 nm | 20881 | – | CC1(C)CCN(C(C)(C)C)C=C1C(=S)Nc1ccccc1 [Compound 182, 1-(tert-butyl)-4,4-dimethyl-N-phenyl-1,4,5,6-tetrahydropyridine-3-carbothioamide]
31 | 288 nm | 22531 | – | CCCCNC(=O)C1=CN(C(C)(C)C)CCC1(C)C [Compound 183, 1-(tert-butyl)-N-butyl-4,4-dimethyl-1,4,5,6-tetrahydropyridine-3-carboxamide]
32 | 308 nm | – | – | Cc1ccc(NC(=O)C2=CN(C(C)(C)C)CCC2(C)C)cc1NC(=O)C1=CN(C(C)(C)C)CCC1(C)C [Compound 184, N,N′-(4-methyl-1,3-phenylene)bis(1-(tert-butyl)-4,4-dimethyl-1,4,5,6-tetrahydropyridine-3-carboxamide)]
33 | 310 nm | 64589 | – | CC1(C)CCN(C(C)(C)C)C=C1C(=O)Nc1ccc(Cc2ccc(NC(=O)C3=CN(C(C)(C)C)CCC3(C)C)cc2)cc1 [Compound 185, N,N′-(methylenebis(4,1-phenylene))bis(1-(tert-butyl)-4,4-dimethyl-1,4,5,6-tetrahydropyridine-3-carboxamide)]
34 | 304 nm | 34588 | – | Cc1ccc(S(=O)(=O)NC(=O)C2=CN(C(C)(C)C)CCC2(C)C)cc1 [Compound 186, 1-(tert-butyl)-4,4-dimethyl-N-tosyl-1,4,5,6-tetrahydropyridine-3-carboxamide]
35 | 322 nm | 71962 | – | CC1(C)CCN(C(C)(C)C)C=C1C(=O)Nc1ccc(NC(=O)C2=CN(C(C)(C)C)CCC2(C)C)cc1 [Compound 187, N,N′-(1,4-phenylene)bis(1-(tert-butyl)-4,4-dimethyl-1,4,5,6-tetrahydropyridine-3-carboxamide)]
